# Results reported in ChEMBL document CHEMBL5724696, “Autophagy assay results for EUbOPEN Chemogenomics Library” (2024).
# Experiments:
# Assay type in all cases: functional, Homo sapiens
# TERT-RPE1 = assay: (§1) Here: values are normalized to the negative (DMSO; defined as 0% autophagy induction) and positive (250nM Torin1; mTOR inhibitor; defined as maximal inducer of autophagy = 100%) control compounds and represented as % of autophagy induction. […] The impact of autophagy induction on cells is complex and depends on the affected target. As such, the magnitude of a phenotype may not be equally mirrored in the %-value of autophagy induction and vice versa. The dynamics of the induction may indicate the mode of activation: e.g. activation via phosphorylation or a signaling cascade may occur fast, while activation via transcription factors may take considerably longer. […] Of note, treatment concentrations may be sub-optimal for specific compounds, leading to false negative annotations.; conditions: Culturing Media DMEM/F12 (1:1), 1 % Penicillin/Streptomycin, 10% Fetal bovin serum Add-On: No, Screening Media Control DMEM/F12 (1:1), Screening Media Samples DMEM/F12 (1:1)
# U2OS [1] = assay: as §1; conditions: Culturing Media DMEM, 1 % Penicillin/Streptomycin, 10% Fetal bovin serum Add-On: No, Screening Media Control DMEM, Screening Media Samples DMEM
# U2OS [2] = assay: as §1; conditions: Culturing Media DMEM, 1 % Penicillin/Streptomycin, 10% Fetal bovin serum Add-On: No, Screening Media Control DMEM, Screening Media Samples DMEM; remark: listed apart in the source
# [3] = Compound Concentration 0.5 uM, Timepoint 12 hours
# [4] = Compound Concentration 0.5 uM, Timepoint 24 hours
# [5] = Compound Concentration 0.5 uM, Timepoint 36 hours
# [6] = Compound Concentration 0.5 uM, Timepoint 60 hours
# [7] = Compound Concentration 2 uM, Timepoint 12 hours
# [8] = Compound Concentration 2 uM, Timepoint 24 hours
# [9] = Compound Concentration 2 uM, Timepoint 36 hours
# [10] = Compound Concentration 2 uM, Timepoint 60 hours
# [11] = Compound Concentration 10 uM, Timepoint 12 hours
# [12] = Compound Concentration 10 uM, Timepoint 24 hours
# [13] = Compound Concentration 10 uM, Timepoint 36 hours
# [14] = Compound Concentration 10 uM, Timepoint 60 hours
smiles,measurement,setting,value
N#Cc1c[nH]c2c(C(=O)N3CCN(CCc4ccc(F)cc4)CC3)cccc12 [PRUVANSERIN],autophagy induction,TERT-RPE1; [3],-0.9197%
same,autophagy induction,TERT-RPE1; [4],-7.874%
same,autophagy induction,TERT-RPE1; [5],-10.0141%
same,autophagy induction,TERT-RPE1; [6],-14.8375%
same,autophagy induction,TERT-RPE1; [7],-6.1985%
same,autophagy induction,TERT-RPE1; [8],-7.924%
same,autophagy induction,TERT-RPE1; [9],-9.7251%
same,autophagy induction,TERT-RPE1; [10],-15.807%
same,autophagy induction,TERT-RPE1; [11],-0.3174%
same,autophagy induction,TERT-RPE1; [12],-4.163%
same,autophagy induction,TERT-RPE1; [13],-3.571%
same,autophagy induction,TERT-RPE1; [14],-3.5258%
same,autophagy induction,U2OS [1]; [3],-2.928%
same,autophagy induction,U2OS [1]; [4],-3.235%
same,autophagy induction,U2OS [1]; [5],-1.344%
same,autophagy induction,U2OS [1]; [6],-1.7078%
same,autophagy induction,U2OS [1]; [7],-0.5957%
same,autophagy induction,U2OS [1]; [8],-2.183%
same,autophagy induction,U2OS [1]; [9],-3.588%
same,autophagy induction,U2OS [1]; [10],-2.524%
same,autophagy induction,U2OS [1]; [11],4.878%
same,autophagy induction,U2OS [1]; [12],-0.06233%
same,autophagy induction,U2OS [1]; [13],-0.9102%
same,autophagy induction,U2OS [1]; [14],-2.945%
same,autophagy induction,U2OS [2]; [3],-6.178%
same,autophagy induction,U2OS [2]; [4],-8.725%
same,autophagy induction,U2OS [2]; [5],-11.774%
same,autophagy induction,U2OS [2]; [6],-11.1897%
same,autophagy induction,U2OS [2]; [7],-0.7991%
same,autophagy induction,U2OS [2]; [8],-1.585%
same,autophagy induction,U2OS [2]; [9],-5.754%
same,autophagy induction,U2OS [2]; [10],-9.463%
same,autophagy induction,U2OS [2]; [11],-2.951%
same,autophagy induction,U2OS [2]; [12],1.579%
same,autophagy induction,U2OS [2]; [13],-6.9473%
same,autophagy induction,U2OS [2]; [14],-6.12%
